The values that follow are results of earlier work, collected in patent US5482960A, “Nonpeptide endothelin antagonists” (Warner-Lambert Company, priority 1994, dated 1996).

Where a SMILES comes first, the peptide text is derived from it. [ ]: non-standard residue; d: D form.

Data set [1] concerns porcine pulmonary arteries. Particulars: isolated, endothelium-intact porcine pulmonary arteries; cited from earlier work.
In data set [2] the test system is ETA. Particulars: mouse model of endotoxic shock; cited from earlier work.
Another data set relates to ET receptor. Particulars: allergic sheep; cited from earlier work.
The test system of data set [3] is ETA. Conditions: following subarachnoid hemorrhage; cited from earlier work.
A further data set deals with endothelin. Particulars: rats; cited from earlier work.
The next data set has as its system small intestinal mucosa. Particulars: local intra-arterial, rats; cited from earlier work.
The test system of another data set is liver. Conditions: cited from earlier work.
The test system of data set [4] is ETA. Conditions: oral; cited from earlier work.

For the compound “ET[1,3,11,15-A1a]: selective ETB agonist, linear analog (ASASSLMDKEAVYFAHLDIIW; Endothelin-1; UniProt P05305 53-73, looked up, variant C1A C3A C11A C15A)”, the vasorelaxation result in data set [1] is reported as “caused vasorelaxation”.

In the case of `CC(C)C[C@@H]1NC(=O)[C@@H](C(C)C)NC(=O)[C@@H]2CCCN2C(=O)[C@@H](CC(=O)O)NC(=O)[C@@H](Cc2c[nH]c3ccccc23)NC1=O` [BQ-123] (cyclo(L[dW][dD]P[dV])), the survival rate entry with ETA [2] was “significantly increased the survival rate”. Also, the “block of ET-1 induced bronchoconstriction and tracheal smooth muscle contraction” value in the data set on ET receptor is “block ET-1 induced bronchoconstriction and tracheal smooth muscle contraction”. Also, the early cerebral vasospasm entry with ETA [3] is recorded as “prevent early cerebral vasospasm following subarachnoid hemorrhage”.

In the case of `COc1cccc(Oc2c(NS(=O)(=O)c3ccc(C(C)(C)C)cc3)ncnc2OCCO)c1` [RO 46-2005], the “efficacy in models of acute renal ischemia and subarachnoid hemorrhage” value with endothelin was “effective in models of acute renal ischemia and subarachnoid hemorrhage in rats”. Take endothelin: the “small intestinal mucosal damage” value with small intestinal mucosa is “induce small intestinal mucosal damage in rats in a dose-dependent manner”. In addition, in the data set on liver, the “vasoconstriction of the hepatic vasculature and hepatic glucose output” value was “sustained vasoconstriction of the hepatic vasculature and a significant increase in hepatic glucose output”.

Take `Cc1noc(NS(=O)(=O)c2cccc3c(N(C)C)cccc23)c1C` [5-(Dimethylamino)-N-(3,4-dimethyl-5-isoxazolyl)-1-naphthalenesulfonamide]: in the data set on ETA [4], the antihypertensive effect result is “demonstrated an oral antihypertensive effect”.
